Measured values: publication PMC12930396, “Positive modulators of N-methyl-D-aspartate receptor: structure–activity relationship study on steroidal C-17 and C-20 oxime ethers” (RSC Advances, 2026)
Several values for one entry are separate records, joined by “and”; a condition that tells them apart may be missing. Identical values can stand only once.

Legend:
Stability in rat plasma = assay type: in vitro ADME; conditions: rat plasma, 37 °C
Protocol: Compounds were prepared as 1.6 mg mL^−1 stock solutions in methanol. Then, 20 µL of stock solution was added to 1000 µL of rat plasma (BioIVT, Cat. No. RAT00PLLH-0102307), maintained at 37 °C. Aliquots (50 µL) withdrawn at 0, 8, and 24 h were analyzed by HPLC. An aliquot of plasma was extracted with methanol (450 µL) containing an internal standard, and the solution was vortexed (20 s) and centrifuged at 13 500 rpm for 10 min. The supernatant was transferred to an autosampler vial, and 10 µL was injected into an LC-MS system. The samples were analyzed using an Agilent 6230 TOF LC/MS. Samples were separated on a Waters ACQUITY UPLC CSH Phenyl-Hexyl column (100 × 2.1, 130 Å, 1.7 µm) at a flow rate of 0.3 mL min^−1. […]. The temperature, the flow rate of the nitrogen drying gas, the pressure of the nitrogen nebulizing gas, and the flow rate of the sheath gas were set at 325 °C, 10 L min^−1, 40 psi, […], and 11 L min^−1, respectively. Results are represented as a percentage of the compound remaining in spiked plasma.

[1] = Thermodynamic solubility in PBS pH 7.4; assay type: physicochemical; conditions: PBS pH 7.4, 20 °C, 24 h
Protocol: The reference samples were prepared as follows: a weight corresponding to 2.5 µmol was dissolved in 250 µL of DMSO, resulting in a concentration of 10 mM stock solution. Each calibration level standard was prepared by diluting the stock solution in a mixture of PBS and acetonitrile (50 : 50 v/v). The samples for testing were prepared as follows: the volume of 1000 µL of PBS was added to the testing tube containing a weight of sample corresponding to 0.4 mM. The mixture was shaken at 1000 rpm at 20 °C for 24 h. The mixture was then filtered using a syringe polypropylene 0.45 µm filter. Samples and calibration standards are prepared using an automated system of a robotic arm (PAL-RTC, Switzerland). Then, the sample was analysed on chromatographic system (Vanquish UHPLC, Thermo Fisher Scientific, Germany) connected to the diode array detector and consequently to the charged aerosol detector (both Vanquish, Thermo Fisher Scientific, Germany), Thermo Scientific Accucore C8 (100 × 3 mm; 2.6 µm) column, using gradient elution with acetonitrile/methanol/5 mM formate buffer (pH = 3.00); flow: 1.0 cm^3 min^−1; column temperature: 40 °C; CAD temperature: 30 °C; sample volume: 5 mm^3.

in vitro = conditions: pH 7.4
Protocol: The reactions were terminated by the addition of four volumes of ice-cold methanol, mixed vigorously, and left at −20 °C for 1h. After that, the samples were centrifuged and the supernatants were analysed by means of ECHO-MS® System (Sciex, Framingham, MA, USA). Zero time points were prepared by adding ice-cold methanol to the mixture of the compound with cofactors before the addition of microsomes. […] Intrinsic clearance (CLint) was calculated using the following formula: [drawing 4] where V is the incubation volume per milligram of microsomal protein (µL mg^−1) and t1/2 is the microsomal half-life.

CCON=C(C)C1CCC2C3CC=C4CC(OC(=O)CCCC(=O)O)CCC4(C)C3CCC12C (stereo not drawn) [Compound 12, 20-Oxo-pregn-5-en-3β-yl hemiglutarate O-ethyloxime]
Stability in rat plasma (% remaining) 8 h (Stability in rat plasma; 8 h): 85.6 ± 1.0 % remaining and 86 ± 1 % remaining
Stability in rat plasma (% remaining) 24 h (Stability in rat plasma; 24 h): 59.6 ± 0.7 % remaining and 60 ± 1 % remaining
Solubility PBS, pH 7.4 (thermodynamic) [1]: 361 ± 41 µM
solubility thermodynamic at 24 h ([1]; PBS, 20 °C, pH 7.4, aqueous buffer, thermodynamic from solid, read-out: Solubility PBS, pH 7.4 (thermodynamic)): > 350 µM
Metabolic stability in rat liver microsomes (in vitro; 1 h, 10 µM): no detectable metabolism after 60 min
half-life at 10 µM (in vitro; rat, microsomes): > 1 h
